What was measured:
Conditions in all cases: 48 h
SEM cells [1] = test: cell viability relative to DMSO control; higher = less cytotoxic
Outline: (§1)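 NOMO1 or SEM (500 cells/well) or P12-Ichikawa (1000 cells/well) leukemia cells were adapted for at least four passages in each medium. They were seeded in 1536-well plates (5 μl) and pin-dosed with library compounds in DMSO over an 11-point threefold series, 47 μM to 0.79 nM. CellTiter-Glo One luminescence was read after 48 h at 37°C. Viability is the per-plate percentage relative to DMSO wells, with cell-free wells as background.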

NOMO1 [2] = test: as above
Outline: as §1

P12-Ichikawa [3] = test: as above
Outline: as §1

NOMO1 [4] = test: AUC of viability dose-response curve (% viability x log10 dose units); higher = less sensitive
Outline: (§2)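 In 1536-well plates, leukemia cells adapted to each medium (500 or 1000 cells/well) were exposed for 48 h at 37°C to library compounds in DMSO across 11 threefold doses, 47 μM down to 0.79 nM. Viability was read by CellTiter-Glo One luminescence and normalised per plate to DMSO and cell-free wells. A four-parameter log-logistic fit over log10 doses was integrated by trapezoidal rule. This yielded the area under the curve, with over-full-viability curves scaled and quality-control failures dropped.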

P12-Ichikawa [5] = test: as above
Outline: as §2

SEM cells [6] = test: as above
Outline: as §2

C/C(=N\NC(=S)N1CCC1)c1ccccn1
cell viability [%]
Conditions | NOMO1 [2] | P12-Ichikawa [3] | SEM cells [1]
HPLM + 10% dialyzed FBS, 0.000781 µM | 104 | 105 | 98.2
HPLM + 10% dialyzed FBS, 0.00234 µM | 76.1 | 92.4 | 65.1
HPLM + 10% dialyzed FBS, 0.00702 µM | 48.5 | 47.6 | 24
HPLM + 10% dialyzed FBS, 0.0211 µM | 29.9 | 29.3 | 16.3
HPLM + 10% dialyzed FBS, 0.0632 µM | 20.8 | 12 | 8.49
HPLM + 10% dialyzed FBS, 0.19 µM | 6.85 | 8.28 | 7
HPLM + 10% dialyzed FBS, 0.569 µM | 5.67 | 5.61 | 6.15
HPLM + 10% dialyzed FBS, 1.71 µM | 4.05 | 10.9 | 4.65
HPLM + 10% dialyzed FBS, 5.12 µM | 2.98 | 8.16 | 3.75
HPLM + 10% dialyzed FBS, 15.4 µM | 15.2 | 1.94 | 2.98
HPLM + 10% dialyzed FBS, 46.1 µM | 5.74 | 20.3 | 4.69
RPMI 5 mM glucose + 10% FBS, 0.000781 µM | 107 | 110 | 102
RPMI 5 mM glucose + 10% FBS, 0.00234 µM | 96.5 | 96.3 | 77.1
RPMI 5 mM glucose + 10% FBS, 0.00702 µM | 74.6 | 57.6 | 23.7
RPMI 5 mM glucose + 10% FBS, 0.0211 µM | 15.3 | 22.7 | 12.9
RPMI 5 mM glucose + 10% FBS, 0.0632 µM | 13 | 10.4 | 6.82
RPMI 5 mM glucose + 10% FBS, 0.19 µM | 7.95 | 8.95 | 6.63
RPMI 5 mM glucose + 10% FBS, 0.569 µM | 6.53 | 8.33 | 5.22
RPMI 5 mM glucose + 10% FBS, 1.71 µM | 8.3 | 6.64 | 3.59
RPMI 5 mM glucose + 10% FBS, 5.12 µM | 2.84 | 5.66 | 2.32
RPMI 5 mM glucose + 10% FBS, 15.4 µM | 13.7 | -0.453 | 1.6
RPMI 5 mM glucose + 10% FBS, 46.1 µM | 11.8 | 9.21 | 3.57
RPMI 5 mM glucose + 10% dialyzed FBS, 0.000781 µM | 99.3 | 117 | 110
RPMI 5 mM glucose + 10% dialyzed FBS, 0.00234 µM | 93.6 | 107 | 53.4
RPMI 5 mM glucose + 10% dialyzed FBS, 0.00702 µM | 37.7 | 64.9 | 19.2
RPMI 5 mM glucose + 10% dialyzed FBS, 0.0211 µM | 19.6 | 29.8 | 15.8
RPMI 5 mM glucose + 10% dialyzed FBS, 0.0632 µM | 17.9 | 12.9 | 6.49
RPMI 5 mM glucose + 10% dialyzed FBS, 0.19 µM | 8.08 | 9.03 | 6.19
RPMI 5 mM glucose + 10% dialyzed FBS, 0.569 µM | 6.69 | 6.61 | 5.7
RPMI 5 mM glucose + 10% dialyzed FBS, 1.71 µM | 5.23 | 6.04 | 4.26
RPMI 5 mM glucose + 10% dialyzed FBS, 5.12 µM | 2.95 | 3.26 | 3.13
RPMI 5 mM glucose + 10% dialyzed FBS, 15.4 µM | 8.3 | -0.0472 | 1.84
RPMI 5 mM glucose + 10% dialyzed FBS, 46.1 µM | 13.1 | 8.99 | 2.93

AUC of viability dose-response curve
Conditions | HPLM + 10% dialyzed FBS | RPMI 5 mM glucose + 10% FBS | RPMI 5 mM glucose + 10% dialyzed FBS
NOMO1 [4] | 122 | 140 | 121
P12-Ichikawa [5] | 127 | 120 | 122

Cn1cc(-c2ccc3nnc(Sc4ccc5ncccc5c4)n3n2)cn1
AUC of viability dose-response curve
Conditions | NOMO1 [4] | P12-Ichikawa [5] | SEM cells [6]
HPLM + 10% dialyzed FBS | 463 | 460 | 457
RPMI 5 mM glucose + 10% FBS | 449 | 448 | 475
RPMI 5 mM glucose + 10% dialyzed FBS | 455 | 459 | 472

CC(C)OC(=O)C(C)(C)Oc1ccc(C(=O)c2ccc(Cl)cc2)cc1
AUC of viability dose-response curve
Conditions | NOMO1 [4] | P12-Ichikawa [5] | SEM cells [6]
HPLM + 10% dialyzed FBS | 469 | 447 | 446
RPMI 5 mM glucose + 10% FBS | 459 | 446 | 423
RPMI 5 mM glucose + 10% dialyzed FBS | 466 | 464 | 442

Cl.Cl.Clc1ccc(Nc2nnc(Cc3ccncc3)c3ccccc23)cc1
AUC of viability dose-response curve
Conditions | NOMO1 [4] | P12-Ichikawa [5] | SEM cells [6]
HPLM + 10% dialyzed FBS | 448 | 442 | 449
RPMI 5 mM glucose + 10% FBS | 469 | 472 | 446
RPMI 5 mM glucose + 10% dialyzed FBS | 460 | 446 | 357

Cc1cn[nH]c1
cell viability [%], SEM cells [1]
Conditions | HPLM + 10% dialyzed FBS | RPMI 5 mM glucose + 10% dialyzed FBS
0.000781 µM | 89.9 | 106
0.00234 µM | 115 | 121
0.00702 µM | 121 | 119
0.0211 µM | 115 | 131
0.0632 µM | 118 | 123
0.19 µM | 122 | 131
0.569 µM | 121 | 138
1.71 µM | 121 | 123
5.12 µM | 114 | 143
15.4 µM | 69 | 94.6
46.1 µM | 95.6 | 115

AUC of viability dose-response curve
Conditions | NOMO1 [4] | P12-Ichikawa [5] | SEM cells [6]
HPLM + 10% dialyzed FBS | 456 | 461 | 456
RPMI 5 mM glucose + 10% FBS | 471 | 469 | 458
RPMI 5 mM glucose + 10% dialyzed FBS | 465 | 461 | 476

C[C@]1(CO)CN(c2cc(C(=O)Nc3ccc4c(c3)-c3c(c(C(N)=O)nn3-c3ccc(F)cc3)CC4)c(Cl)cn2)C[C@@]1(C)CO
AUC of viability dose-response curve
Conditions | NOMO1 [4] | P12-Ichikawa [5] | SEM cells [6]
HPLM + 10% dialyzed FBS | 446 | 418 | 421
RPMI 5 mM glucose + 10% FBS | 457 | 423 | 317
RPMI 5 mM glucose + 10% dialyzed FBS | 445 | 422 | 422

C=C1/C(=C/C=C2\CCCC3(C)[C@@H]([C@H](C)/C=C/C=C/C(O)(CC)CC)CC[C@@H]23)C[C@@H](O)C[C@@H]1O (some centres not stated)
AUC of viability dose-response curve
Conditions | NOMO1 [4] | P12-Ichikawa [5] | SEM cells [6]
HPLM + 10% dialyzed FBS | 437 | 463 | 463
RPMI 5 mM glucose + 10% FBS | 422 | 451 | 460
RPMI 5 mM glucose + 10% dialyzed FBS | 445 | 455 | 448

CC1=CC=C2N=C(NC(=O)CS\C3=N\C4=C(\SCC4)C(=O)N3C5=CC=CC=C5)SC2=C1
AUC of viability dose-response curve
Conditions | HPLM + 10% dialyzed FBS | RPMI 5 mM glucose + 10% FBS | RPMI 5 mM glucose + 10% dialyzed FBS
P12-Ichikawa [5] | 444 | 430 | 435
SEM cells [6] | 424 | 421 | 446

From the supplement of paper PMC11451515
